{"source": "a melting point compilation (Tetko et al.; mined from patent text by program, amines drawn as free bases though some values may be those of a salt)"}
{"units": {"melting point": "°C"}}
{"smiles": "COC(=O)c1cc(C(=O)NCC(N)=O)c2cc(Cc3ccc(F)cc3)cnc2c1O", "melting point": "247 to 248"}
{"smiles": "COc1ccccc1C(=O)Nc1ccc(CN2C(=O)[C@H]3CCC[C@H]3N(C(=O)CN3C(=O)c4ccccc4C3=O)c3ccccc32)cc1", "note": "(relative stereo)", "melting point": "279 to 281"}
{"smiles": "CC(NC(=O)Cc1cc(F)cc(F)c1)C(=O)NC1C(=O)NCc2ccccc21", "note": "(stereo unspecified)", "melting point": "243 to 244"}
{"smiles": "O=S(=O)(NC1CCCCC1)c1ccc(Cn2cnc3ccccc32)cc1", "melting point": "192 to 193"}
{"smiles": "Cc1cccc(C)c1N(CCl)C(=O)c1ccccc1", "melting point": 133}
{"smiles": "O=C1c2cc3nnn(Cc4cccnc4)c(=O)c3cc2OC2CCCN12", "note": "(stereo unspecified)", "melting point": "203 to 205"}
{"smiles": "COc1cc(N(C)C)nc(N2CCN(Cc3ccc(CNC(C)=O)cc3)CC2)n1", "melting point": "115 to 118"}
{"smiles": "CCCCCCCC(=O)N(C)Cc1cccc(-c2ccc(C=CC(=O)O)o2)c1", "melting point": "96 to 98"}
{"smiles": "Nc1ncccc1-c1nc2cc(C(F)(F)F)cnc2n1-c1ccc(CNC(=O)c2cccc(F)c2)cc1", "melting point": "230 to 231"}
{"smiles": "O[C@H]1CC[C@H](Nc2nccc(-c3c[nH]c4ccccc34)n2)CC1", "melting point": "258 to 260"}
{"smiles": "COc1cc(N)c(Cl)cc1C(=O)NCC1CCN(CCCC(=O)c2ccc(O)cc2)CC1", "melting point": "199 to 201"}
{"smiles": "CCOC(=O)C(NO)NC(C)=O", "note": "(stereo unspecified)", "melting point": "119 to 121"}
{"smiles": "Cc1ncc(CCCN2C(=O)c3ccccc3C2=O)s1", "melting point": 75}
{"smiles": "CS(=O)CCC(=N)NS(N)(=O)=O", "note": "(stereo unspecified)", "melting point": "141 to 144"}
{"smiles": "O=c1nc(-c2ccc(Cl)s2)cc(C(F)(F)F)[nH]1", "melting point": 191}
{"smiles": "NS(=O)(=O)c1cc2c(s1)S(=O)(=O)CCN2", "melting point": "250 to 252"}
{"smiles": "CCCCc1cn(-c2c(C)cccc2Cl)c(=O)n1Cc1ccc(-c2ccccc2-c2nnn[nH]2)cc1", "melting point": "163 to 164"}
{"smiles": "Cc1cc(Cl)n(-c2ccc(Cl)nn2)n1", "melting point": "123 to 126"}
{"smiles": "CS(=O)(=O)c1cc(Br)ccc1CN1C(=O)c2ccccc2C1=O", "melting point": "188 to 190"}
{"smiles": "CCOC(=O)c1nc(N)sc1C(=O)C(C)Br", "note": "(stereo unspecified)", "melting point": "158 to 160"}
{"smiles": "COc1cc(F)c(C)cc1C(=O)O", "melting point": "125 to 127"}
{"smiles": "CCCCSc1cc(C(=O)O)cc([N+](=O)[O-])c1-c1ccccc1", "melting point": "147 to 148"}
{"smiles": "Nc1ccc(S(=O)(=O)Nc2ccccc2C(=O)NCCCn2ccnc2)cc1", "melting point": "171 to 175"}
{"smiles": "CN1C(=O)N(CCC(=O)O)C(C)(C)C1=O", "melting point": 103}
{"smiles": "CC1Oc2ccc(Cl)cc2N(CC(O)CO)C1=O", "note": "(stereo unspecified)", "melting point": 88}
{"smiles": "CC(=O)OC1CSC(Oc2cccc(-c3c(C)noc3C)c2)C(OC(C)=O)C1OC(C)=O", "note": "(stereo unspecified)", "melting point": "167 to 169"}
{"smiles": "COc1ccc2oc3ccc(Br)cc3c2c1C(=O)Nc1ccncc1", "melting point": "270 to 273"}
{"smiles": "COC(=O)c1ccc2c(c1)OCCO2", "melting point": "43 to 45"}
{"smiles": "COC(=O)[C@H](CC(C)C)NC(=O)c1ccco1", "melting point": "88 to 90"}
{"smiles": "CN1CCN(CC(=O)Nc2cccc3c2C(=O)c2c-3n[nH]c2-c2ccc(N3CCOCC3)cc2)CC1", "melting point": 258}
{"smiles": "N#CC1C(=O)Nc2cc(Cl)ccc2C1=O", "note": "(stereo unspecified)", "melting point": "314 to 316"}
{"smiles": "O=S1(=O)c2ccccc2Oc2ccccc21", "melting point": "145 to 146"}
{"smiles": "CC(C)(C)OC(=O)N1CCC(=Cc2ccc3ccccc3n2)CC1", "melting point": "72 to 73"}
{"smiles": "Cc1noc(NS(=O)(=O)c2ccc(Cl)cc2)c1Br", "melting point": "145 to 150"}
{"smiles": "Cc1cc2c(cc1S(N)(=O)=O)S(=O)(=O)NC(c1cccnn1)=N2", "melting point": "330 to 335"}
{"smiles": "COc1cc(Cc2cnc(N)nc2N)cc(-c2ccc(CO)cc2)c1OC", "melting point": 86}
{"smiles": "Nc1ccc(-c2nnsc2-c2ccc(N)cc2)cc1", "melting point": 236}
{"smiles": "CCc1n[nH]c(CC)c1CCCCCCOc1ccc(O)cc1Cl", "melting point": "109 to 111"}
{"smiles": "COc1cc(NC(C)=O)c(Cl)cc1C(=O)CCCCN1CCCCC1", "melting point": "74 to 75"}
{"smiles": "CSc1cc(C)c(O)c(C)c1SC", "melting point": "98 to 100"}
{"smiles": "Cc1ccc2c(c1)C(=O)c1ccc(C#N)cc1S2(=O)=O", "melting point": 290}
{"smiles": "O=[N+]([O-])c1cc(Br)ccc1-c1ccc(F)cc1F", "melting point": "52 to 53"}
{"smiles": "COc1cc(Cc2cnc(N)nc2N)cc(C=Cc2ccccc2)c1OC", "melting point": 226}
{"smiles": "O=Cc1c(Cl)nc(-c2ccccc2)n1Cc1ccc([N+](=O)[O-])cc1", "melting point": "150 to 152"}
{"smiles": "CC(=O)NC(C)(C)Cc1ccc2c(c1)CCC2", "melting point": "130 to 131"}
{"smiles": "O=C(Nc1ccc(C(F)(F)F)cc1)Nc1ccc2c(c1)COC2=O", "melting point": "297 to 307"}
{"smiles": "CCn1cc(-c2ccccc2)nc(S(=O)(=O)Cc2ccc(Cl)cc2)c1=O", "melting point": "146 to 148"}
{"smiles": "COC(=O)c1cc(C#N)cc2c1OC(c1ccccc1)(c1ccccc1)O2", "melting point": 141}
{"smiles": "O=C1CCCc2ccc(OCCCC(=O)N3CCOCC3)cc21", "melting point": "88 to 90"}
{"smiles": "Cc1ccc(N2CCN(c3c(C)c(C)c4c(c3C)CC(C)(C)O4)CC2)cc1", "melting point": "152 to 155"}
{"smiles": "CCOC(=O)C=C(C)C=CC=C(C)C=Cc1c(C)cc(OC)c(OC)c1C", "melting point": "203 to 204"}
{"smiles": "CCOc1ccc(CCCCC=CC(=O)O)cc1", "melting point": "62 to 63"}
{"smiles": "COc1ccc2c(Br)csc2c1", "melting point": 62}
{"smiles": "CC1(C)NCCc2c1oc1cc(I)ccc21", "melting point": "97 to 98"}
{"smiles": "CCOC(=O)c1c2ccc(CC(=O)NOCCN3CCCCC3)ccc-2c(C(=O)OCC)c1N", "melting point": "163 to 165"}
{"smiles": "COc1ccc(-c2n[nH]c3ccc([N+](=O)[O-])cc23)cc1", "melting point": 153}
{"smiles": "Cc1nc(-c2ccccc2)[nH]c1-c1cnc(-c2ccccc2)nc1", "melting point": 138}
{"smiles": "CC(Cc1ccc(Cl)cc1Cl)NC(=O)c1cn(C)nc1C(F)F", "note": "(stereo unspecified)", "melting point": 157}
{"smiles": "CCOC(=O)N1CCC(NC(=S)Nc2cc(Cl)ccc2NCc2ccccc2)CC1", "melting point": 162}
{"smiles": "CCCn1c(=O)c2c(nc(C=Cc3cc(OC)c(OC)cc3S(=O)(=O)N(CC)CC)n2C)n(CCC)c1=O", "melting point": "227 to 228"}
{"smiles": "CC(=O)Oc1ccc(Oc2cccc(C(=O)O)c2)cc1", "melting point": "141 to 143"}
{"smiles": "CN(C)CCOC1=C(c2ccccc2)CN(Cc2ccco2)C1=O", "melting point": "145 to 148"}
{"smiles": "CCOC(=O)c1c[nH]c2c(F)c(C)c(F)cc2c1=O", "melting point": "260 to 263"}
{"smiles": "CC(C)C(NC(=O)N1CCc2cc(S(=O)(=O)N3CCN(c4cccc(Cl)c4)CC3)ccc21)C(=O)O", "note": "(stereo unspecified)", "melting point": "185 to 186"}
{"smiles": "O=C1Nc2ccc(Cl)nc2Oc2ccccc21", "melting point": "311 to 313"}
{"smiles": "COc1cc(OC)nc(OC(C(=O)O)C(C)(c2ccccc2)c2ccccc2)n1", "note": "(stereo unspecified)", "melting point": "229 to 234"}
{"smiles": "COc1ccc(C)cc1NC(=O)Nc1ccc(N2CCN(C(=O)Nc3cc(OCCO)ccc3C)CC2)cc1", "melting point": "121 to 124"}
{"smiles": "CCCNC(=O)CCCCCn1c(CCC)nc2c(N)nc3ccccc3c21", "melting point": "139 to 141"}
{"smiles": "O=C1c2ccc3cc(C(=O)N4CCN(Cc5ccccc5)CC4)cnc3c2N=CC1[N+](=O)[O-]", "note": "(stereo unspecified)", "melting point": "213 to 216"}
{"smiles": "COc1cc2cc(C(=O)Nc3cc(OCc4ccccc4)c4ccccc4c3CCOC(C)=O)[nH]c2c(OC)c1OC", "melting point": "55 to 65"}
{"smiles": "COc1ncc(CN2C(=O)C3(COc4cc5c(cc43)OCCO5)c3ccccc32)cn1", "note": "(stereo unspecified)", "melting point": "102 to 104"}
{"smiles": "CCOC(=O)c1cnn(-c2ccc(OC(F)(F)F)cc2)c1", "melting point": "114 to 116"}
{"smiles": "CC(C)c1cccc(C(C)C)c1NC(=O)NCC1(c2ccccc2)CCCCC1", "melting point": "168 to 169"}
{"smiles": "COCOc1ccc(-c2ncc3ccc(-c4csc(CN5CCOCC5)c4)nc3n2)cc1", "melting point": "> 268"}
{"smiles": "COc1ccc(OS(=O)(=O)c2ccc(C)cc2)c(C(C)C)c1", "melting point": 85.1}
{"smiles": "COc1ccc(-c2ccc(C=O)c3ccoc23)cc1", "melting point": "143 to 144"}
{"smiles": "Cc1ccnc(CSc2nc3ccccc3c(=O)n2-c2ccccc2)c1", "melting point": "145 to 150"}
{"smiles": "COC(=O)c1c(-c2ccccc2)nn2c1-c1ccccc1CC2", "melting point": "112 to 113"}
{"smiles": "CC(C)(CC(O)(CO)C(F)(F)F)c1cc(Br)cc2c1OCC2", "note": "(stereo unspecified)", "melting point": "124 to 128"}
{"smiles": "CS(=O)(=O)C(=C1CN(C(c2ccccc2)c2ccccc2)C1)c1cc(F)cc(F)c1", "melting point": 172}
{"smiles": "O=S1(=O)CCC(=S)Nc2ccc(Cl)cc2C1c1ccccc1F", "note": "(stereo unspecified)", "melting point": 226}
{"smiles": "CC(C)(C)OC(=O)CON=C(C(=O)O)c1cccc(NC=O)n1", "melting point": "162 to 168"}
{"smiles": "O=Cc1ccc(OC2CCCC2)c(Oc2ccc([N+](=O)[O-])cc2Br)c1", "melting point": "92 to 94"}
{"smiles": "CC(C)(C)[N+]([O-])=Cc1cc(Cl)ccc1O", "melting point": 143}
{"smiles": "CCNC(=O)c1ccc(-c2cnc3c(c2)N(Cc2ccccc2)C(=O)CN3)cc1", "melting point": 195}
{"smiles": "COc1ccc(C(=O)CCCCCN2CCC(CNC(=O)c3cc(Cl)c(N)cc3OC)CC2)cc1Cl", "melting point": "104 to 106"}
{"smiles": "Cc1ccc(Cl)cc1-c1cc(F)cc2c1O[C@@H](CN)C2", "melting point": "148 to 150"}
{"smiles": "COC[C@@H](C)n1cc(Cl)nc(N2CCc3cc(Br)cc(Br)c32)c1=O", "melting point": "119 to 120"}
{"smiles": "COC(=O)c1cc(C(=O)NNC(=O)c2ccccn2)c2cc(Cc3ccc(F)cc3)cnc2c1O", "melting point": "164 to 166"}
{"smiles": "CCC(=O)c1cc2ccccc2cc1C(=O)O", "melting point": 147}
{"smiles": "CC(CSC(=O)c1ccccc1)C(=O)N(CC(=O)O)C1Cc2ccccc2C1", "note": "(stereo unspecified)", "melting point": "113 to 115"}
{"smiles": "N=C(NO)c1ccc2c(c1)COC(N[C@@H]1CCc3ccccc31)=N2", "melting point": 206}
{"smiles": "CCCc1nn(-c2ccc(C(F)(F)F)cn2)cc1CCCOc1ccc(CC(=O)O)cc1", "melting point": "101 to 102"}
{"smiles": "Cc1noc(NS(=O)(=O)c2ccsc2C(=O)Oc2ccc3c(c2)OCO3)c1Cl", "melting point": "189 to 191"}
{"smiles": "CC(C)C(=O)NC1CCc2c(c3cc(-c4ccccn4)ccc3n2Cc2cccc(F)c2)C1", "note": "(stereo unspecified)", "melting point": "228 to 230"}
{"smiles": "CCCCCCCCCCCCn1c2cc(Br)ccc2c2ccc(Br)cc21", "melting point": "78 to 79"}
{"smiles": "C=CCOC(=O)c1ccc(NC(=O)c2ccc(OC)c(C34CC5CC(CC(C5)C3)C4)c2)cc1", "melting point": "191 to 192"}
{"smiles": "CC(C)CC(=O)Nc1ccc(Cl)c(-c2ccnc3c(C(=O)c4cccs4)cnn23)c1", "melting point": "162 to 165"}
{"smiles": "O[C@H]1C[C@H]2CN(C3=Nc4cc(Cl)ccc4Sc4ccccc43)CCN2C1", "melting point": "58 to 60"}
{"smiles": "COc1ccc2nc3c(C(=O)O)cccn3c(=O)c2c1", "melting point": "272 to 274"}
{"smiles": "CCCc1c(OCCCOc2ccc3c(c2CCC)OC(C)(CCC(N)=O)CC3=O)ccc(C(C)=O)c1O", "note": "(stereo unspecified)", "melting point": "77 to 79"}
